Assay results from the NIST ThermoML archive (doi:10.1016/j.jct.2019.03.022).

Details: Liquid, Frequency=5 MHz, Pulse-echo method

Cc1ccccc1 [toluene]
Details	speed of sound [m/s]
323.29 K, 10200 kPa	1253.2
323.32 K, 20480 kPa	1305.4
323.32 K, 20600 kPa	1305.9
323.34 K, 31540 kPa	1356.7
323.37 K, 44870 kPa	1413.5
323.38 K, 60790 kPa	1475.5
323.39 K, 60820 kPa	1475.5
373.82 K, 7570 kPa	1046.5
373.83 K, 2170 kPa	1007.9
373.83 K, 21270 kPa	1132.5
373.85 K, 35520 kPa	1209.3
373.87 K, 64470 kPa	1340.7
373.9 K, 50350 kPa	1280
422.93 K, 6580 kPa	863.73
422.98 K, 20740 kPa	974.49
423.01 K, 36450 kPa	1073.4
423.04 K, 56200 kPa	1176.9

O [water]
Details	speed of sound [m/s]
306.13 K, 1030 kPa	1517.3
306.14 K, 4950 kPa	1524
306.15 K, 19980 kPa	1549.5
306.15 K, 59750 kPa	1616.5
306.16 K, 29980 kPa	1566.5
306.16 K, 39950 kPa	1583.3
306.16 K, 49950 kPa	1600.1
357.97 K, 20280 kPa	1593.1
357.99 K, 400 kPa	1553.7
358 K, 30380 kPa	1612.5
358 K, 40230 kPa	1630.9
358.01 K, 50080 kPa	1649
358.03 K, 59980 kPa	1666.8
420.93 K, 1180 kPa	1471.5
421.06 K, 20130 kPa	1520.6
421.12 K, 40030 kPa	1568.6
421.2 K, 59900 kPa	1613.1
